From patent publication US20060069132A1, “Azolecarboxamide herbicides” (priority 2004, published 2006)

What was measured:
wheat = test: Test B postemergence herbicide test; format: in vivo, Triticum aestivum; parameters: key to Wheat plant response rating: 0 = no effect, 100 = complete control; details: postemergence
How it was run: (§1)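 Visual ratings, 0 (no effect) to 100 (complete control), made versus controls after 13–15 d greenhouse. Paddy plants treated at 2-leaf stage; postemergence plants at 1- to 4-leaf stage, 2–18 cm tall.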

[1] = test system: small flower umbrella sedge; test: Test B flooded paddy test; format: in vivo, Cyperus difformis; details: 1000 g ai/ha, scale 0 to 100 (0 no effect, 100 complete control)
How it was run: (§2)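 Visual control ratings, 0–100 versus untreated controls, taken after 13 to 15 days in the greenhouse. Blackgrass received a postemergence spray at the 1- to 4-leaf stage (2–18 cm); ducksalad, umbrella sedge and barnyardgrass were flooded-paddy treated at 2 leaves.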

giant foxtail = test: Test B pre-/postemergence herbicide test; format: in vivo, Setaria faberi; details: for Foxtail, Giant plant response rating: postemergence
How it was run: (§3)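 Response was scored visually 13 to 15 days after treatment against untreated greenhouse controls, 0 meaning no effect and 100 complete control. Formulations (solvent mixture plus surfactant) went onto soil after planting, onto foliage of 1- to 4-leaf plants, and onto 2-leaf plants in a flooded paddy set including rice and barnyardgrass.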

pigweed = test: Test B pre-/postemergence herbicide test; format: in vivo, Amaranthus retroflexus; details: for Pigweed plant response rating: postemergence
How it was run: as §3

velvetleaf = test: Test B pre-/postemergence herbicide test; format: in vivo, Abutilon theophrasti; details: for Velvetleaf plant response rating: postemergence
How it was run: as §3

ducksalad [2] = test: Test C flooded paddy test; format: in vivo, Heteranthera limosa
corn = test: Test B pre-/postemergence herbicide test; format: in vivo, Zea mays; details: for Corn plant response rating: postemergence
How it was run: as §3

[3] = test system: smallflower umbrella sedge; test: Test C flooded paddy test; format: in vivo, Cyperus difformis
barnyardgrass [4] = test: Test C flooded paddy test; format: in vivo, Echinochloa crus-galli
How it was run: (§4)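 Injury scored visually against controls on a 0 (no effect) to 100 (complete control) scale, 12 to 14 days after treatment in greenhouse. Flooded paddy plants treated at 2-leaf stage; postemergence plants at 1- to 4-leaf stage, 2 to 18 cm tall.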

barnyardgrass [5] = test: Test B flooded paddy test; format: in vivo, Echinochloa crus-galli; details: 1000 g ai/ha, scale 0 to 100 (0 no effect, 100 complete control)
How it was run: as §2

morningglory = test: Test B pre-/postemergence herbicide test; format: in vivo, Ipomoea coccinea; details: for Morningglory plant response rating: postemergence
How it was run: as §3

barnyardgrass [6] = test: Test B pre-/postemergence herbicide test; format: in vivo, Echinochloa crus-galli; details: for Barnyardgrass plant response rating: postemergence, scale 0 (no effect) to 100 (complete control)
How it was run: as §3

lambsquarters = test: Test B pre-/postemergence herbicide test; format: in vivo, Chenopodium album; details: for Lambsquarters plant response rating: postemergence
How it was run: as §3

blackgrass = test: Test B postemergence herbicide test; format: in vivo, Alopecurus myosuroides; details: postemergence, visual rating, scale 0 (no effect) to 100 (complete control)
How it was run: as §2

wild oat = test: Test B postemergence herbicide test; format: in vivo, Avena fatua; details: postemergence
How it was run: as §1

ducksalad [7] = test: Test B flooded paddy test; format: in vivo, Heteranthera limosa; details: 1000 g ai/ha, scale 0 to 100 (0 no effect, 100 complete control)
How it was run: as §2

cocklebur = test: Test B pre-/postemergence herbicide test; format: in vivo, Xanthium strumarium; details: for Cocklebur plant response rating: postemergence, scale 0 (no effect) to 100 (complete control)
How it was run: as §3

rice [8] = test: Test B flooded paddy test; format: in vivo, Oryza sativa; details: 1000 g ai/ha, scale 0 to 100 (0 no effect, 100 complete control)
How it was run: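 Postemergence plants were sprayed with formulated test chemicals at 2 to 18 cm height (1- to 4-leaf stage); paddy species were grown to the 2-leaf stage. After 13 to 15 days in a greenhouse, injury was rated visually against untreated controls on a 0–100 scale (0 = no effect, 100 = complete control).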

rice [9] = test: Test C flooded paddy test; format: in vivo, Oryza sativa
How it was run: as §4

Surinam grass = test: Test B pre-/postemergence herbicide test; format: in vivo, Urochloa decumbens; details: for Surinam Grass plant response rating: postemergence
How it was run: as §3

large crabgrass = test: Test B pre-/postemergence herbicide test; format: in vivo, Digitaria sanguinalis; details: for Crabgrass, Large plant response rating: postemergence
How it was run: as §3

rice [10] = test: Test B pre-/postemergence herbicide test; format: in vivo, Oryza sativa; details: 0 = no effect, 100 = complete control, preemergence
How it was run: as §3

[11] = 125 g ai/ha, visual rating, scale 0 (no effect) to 100 (complete control)
[12] = 500 g ai/ha, scale 0 to 100, 0 is no effect, 100 is complete control
[13] = 125 g ai/ha, 0 = no effect, 100 = complete control, preemergence
[14] = 500 g ai/ha, visual rating, 0 = no effect, 100 = complete control, preemergence
[15] = 62 g ai/ha, scale 0 to 100 (0 no effect, 100 complete control)
[16] = 125 g ai/ha, scale 0 to 100 (0 no effect, 100 complete control)
[17] = 250 g ai/ha, scale of 0 to 100, 0 is no effect, 100 is complete control
[18] = 500 g ai/ha, visual rating after 12 to 14 days, scale 0 to 100 (0 no effect, 100 complete control)

CCn1nc(C(C)(C)C)cc1C(=O)Nc1cc(C(=O)N2CCOCC2)ccc1F [Compound 243]
50: Foxtail, Giant plant response rating (0 to 100 scale) (giant foxtail; [13]) | Velvetleaf plant response rating (velvetleaf; [11]) | Plant response rating, Corn (corn; [14])
75: Ducksalad plant response rating (ducksalad [2]; [15]) | Sedge, Umbrella plant response rating [3, 15] | Barnyardgrass plant response rating (barnyardgrass [4]; [17]) | Rice plant response rating (rice [9]; [16])
85: Ducksalad plant response rating (ducksalad [2]; [16]) | Plant response rating, Barnyardgrass (barnyardgrass [4]; [18])
30: Cocklebur plant response rating (cocklebur; 500 g ai/ha, visual rating)
100: Plant response rating, Pigweed (pigweed; [14]) | Plant response rating, Velvetleaf (velvetleaf; [14]) | Plant response rating, Lambsquarters (lambsquarters; [14]) | Plant response rating, Crabgrass, Large (large crabgrass; [14])
80: Sedge, Umbrella plant response rating [1] | Plant response rating, Foxtail, Giant (giant foxtail; [14]) | Sedge, Umbrella plant response rating [3, 16] | Sedge, Umbrella plant response rating [3, 17] | Plant response rating, Sedge, Umbrella [3, 18] | Lambsquarters plant response rating (lambsquarters; [12]) | Rice plant response rating (rice [9]; [17]) | Plant response rating, Surinam Grass (Surinam grass; [14]) | Plant response rating, Rice (rice [10]; 500 g ai/ha, visual rating)
60: Pigweed plant response rating (0 to 100 scale) (pigweed; [13]) | Pigweed plant response rating (pigweed; [12]) | Velvetleaf plant response rating (velvetleaf; [12]) | Surinam Grass plant response rating (0 to 100 scale) (Surinam grass; [13]) | Crabgrass, Large plant response rating (0 to 100 scale) (large crabgrass; [13])
70: Barnyardgrass plant response rating (0 to 100 scale) (barnyardgrass [6]; [13]) | Lambsquarters plant response rating (lambsquarters; [11])
0: Wheat plant response rating (wheat; [11]) | Wheat plant response rating (wheat; [12]) | Barnyardgrass plant response rating (barnyardgrass [4]; [15]) | Morningglory plant response rating (0 to 100 scale) (morningglory; [13]) | Plant response rating, Morningglory (morningglory; [14]) | Morningglory plant response rating (morningglory; [11]) | Blackgrass plant response rating (blackgrass; 125 g ai/ha) | Blackgrass plant response rating (blackgrass; 500 g ai/ha) | Oat, Wild plant response rating (wild oat; [11]) | Cocklebur plant response rating (0 to 100 scale) (cocklebur; [13])
90: Ducksalad plant response rating (ducksalad [2]; [17]) | Plant response rating, Ducksalad (ducksalad [2]; [18]) | Barnyardgrass plant response rating (barnyardgrass [5]) | Plant response rating, Barnyardgrass (barnyardgrass [6]; [14]) | Lambsquarters plant response rating (0 to 100 scale) (lambsquarters; [13]) | Ducksalad plant response rating (ducksalad [7]) | Rice plant response rating (rice [8]) | Plant response rating, Rice (rice [9]; [18])
20: Foxtail, Giant plant response rating (giant foxtail; [12]) | Pigweed plant response rating (pigweed; [11]) | Corn plant response rating (0 to 100 scale) (corn; [13]) | Morningglory plant response rating (morningglory; [12]) | Barnyardgrass plant response rating (barnyardgrass [6]; 500 g ai/ha, visual rating) | Oat, Wild plant response rating (wild oat; [12]) | Plant response rating, Cocklebur (cocklebur; [14]) | Surinam Grass plant response rating (Surinam grass; [12]) | Rice plant response rating (0 to 100 scale) (rice [10]; 125 g ai/ha)
65: Barnyardgrass plant response rating (barnyardgrass [4]; [16])
40: Velvetleaf plant response rating (0 to 100 scale) (velvetleaf; [13])
15: Rice plant response rating (rice [9]; [15])
10: Foxtail, Giant plant response rating (giant foxtail; [11]) | Corn plant response rating (corn; [11]) | Corn plant response rating (corn; [12]) | Barnyardgrass plant response rating (barnyardgrass [6]; 125 g ai/ha, visual rating) | Cocklebur plant response rating (cocklebur; 125 g ai/ha, visual rating) | Surinam Grass plant response rating (Surinam grass; [11]) | Crabgrass, Large plant response rating (large crabgrass; [11]) | Crabgrass, Large plant response rating (large crabgrass; [12])
